Assay results: US20250066371A1, “FLUOROALKOXYALKYLENE-DIHYDROIMIDAZO[5,1-D]TETRAZINONE COMPOUNDS AND RELATED COMPOUNDS AND THEIR USE IN TREATING MEDICAL CONDITIONS” (priority 2023, published 2025)

How the values were obtained:
[1] = test system: 885 barcoded cancer cell lines; assay: PRISM multiplexed cell-viability assay (Example 45); format: cell-based; settings: 5-day treatment; for Log 2 fold change in abundance of the cells: 66.7 μM
From the text: The multiplexed cell-viability platform, PRISM (profiling relative inhibition simultaneously in mixtures), enabled multiplexed screening of Compound I-1 across 900 barcoded cell lines representing more than 45 lineages. Details of the assay technique are described in Yu, C., et al. “High-throughput identification of genotype-specific cancer vulnerabilities in mixtures of barcoded tumor cell lines,” Nat. Biotechnol. 2016, Vol. 34, p. 419-423; and Corsello, S. M., et al. “Discovering the anti-cancer potential of non-oncology drugs by systematic viability profiling,” Nat. Cancer, 2020, Vol. 1, p. 235-248; each of which are hereby incorporated by reference in their entirety.
Briefly, unique oligonucleotide barcodes are stably transduced into individual cancer cell lines. Following barcode transduction, individual cell lines are pooled together in groups of 20-25 based on growth rate similarity, then thawed into 384-well assay-ready plates, and treated with test compound. After 5 days of incubation, isolated mRNA is used to quantify transcribed barcode abundance of each individual cancer cell line to calculate relative viability (Log 2 fold change, “LFC”).
Compound I-1 was screened in the PRISM assay at 8-point dose (3-fold dilution) with a 5-day treatment with 885 cancer cell lines passing QC. Two PRISM cell line collections were used in the assay: PR500 (including only adherent cell lines) and PR300+(including adherent and suspension cell lines). Benchmark compounds (included in the validation compounds) were also tested at doses to ensure high data quality. All compounds were run in triplicate, and each plate contained positive (Bortezomib, 20 μM) and negative (DMSO) controls.

[2] = test system: 647-V; assay: Cell panel nuclear dye assay; format: cell-based; settings: Homo sapiens, 120 h, Bladder, 5-day incubation
Protocol: (§1) Cells were grown in RPMI1640, 10% FBS, 2 mM L-alanyl-L-glutamine, 1 mM Na pyruvate, or a special medium. Cells were seeded into 384-well plates and incubated in a humidified atmosphere of 5% CO2 at 37° C. Compound was added the day following cell seeding. At the same time, a time zero untreated cell plate was generated. After a 5-day incubation period, cells were fixed and stained to allow fluorescence imaging of nuclei.
(§2) Compounds were serially diluted in 2-fold steps from the highest test concentration specified, and assayed over 10 concentrations with a maximum assay concentration of 0.1% DMSO. Automated fluorescence microscopy was carried out using a Molecular Devices ImageXpress Micro XL high-content imager, and images were collected with a 4× objective. 16-bit TIFF images were acquired and analyzed with MetaXpress 5.1.0.41 software.
(§3) Cell proliferation was measured by the fluorescence intensity of an incorporated nuclear dye. The output is referred to as the relative cell count, where the measured nuclear intensity is transformed to percent of control (POC) using the following formula: […]
(§4) Cell count IC50 is the test compound concentration at 50% of maximal possible response. EC50 is the test compound concentration at the curve inflection point or half the effective response (parameter C of the fitted curve solution). GI50 is the concentration needed to reduce the observed growth by half (midway between the curve maximum and the time zero value). Activity area is an estimate of the integrated area above the curve. Activity area values range from 0-10, where a value of zero indicates no inhibition of proliferation at all concentrations, and a value of 10 indicates complete inhibition of proliferation at all concentrations. In rare instances, values <0 or >10 may be observed. In these instances, values <0 should be considered as equivalent to 0, whereas values >10 should be considered equivalent to 10.

[3] = test system: A101D; assay: Cell panel nuclear dye assay; format: cell-based; settings: Homo sapiens, 120 h, Melanoma, 5-day incubation
Protocol: as §1, §2, §3, §4

[4] = test system: A172; assay: Cell panel nuclear dye assay; format: cell-based; settings: Homo sapiens, A 172, 120 h, Glioma (glioblastoma), 5-day incubation
Protocol: as §1, §2, §3, §4

[5] = test system: BC-1; assay: Cell panel nuclear dye assay; format: cell-based; settings: Homo sapiens, BC1, 120 h, Lymphoma (B-cell), 5-day incubation
Protocol: as §1, §2, §3, §4

[6] = test system: C32TG; assay: Cell panel nuclear dye assay; format: cell-based; settings: 120 h, Melanoma, 5-day incubation
Protocol: as §1, §2, §3, §4

[7] = test system: Jiyoye; assay: Cell panel nuclear dye assay; format: cell-based; settings: Homo sapiens, 120 h, Lymphoma (Burkitt's), 5-day incubation
Protocol: as §1, §2, §3, §4

[8] = test system: NCI-H441; assay: Cell panel nuclear dye assay; format: cell-based; settings: Homo sapiens, 120 h, Lung (NSCLC), 5-day incubation
Protocol: as §1, §2, §3, §4

[9] = test system: SCC-4; assay: Cell panel nuclear dye assay; format: cell-based; settings: Homo sapiens, 120 h, Head & neck (squamous cell carcinoma, tongue), 5-day incubation
Protocol: as §1, §2, §3, §4

[10] = test system: SK-LMS-1; assay: Cell panel nuclear dye assay; format: cell-based; settings: Homo sapiens, 120 h, Sarcoma (leiomyosarcoma), 5-day incubation
Protocol: as §1, §2, §3, §4

[11] = test system: SR; assay: Cell panel nuclear dye assay; format: cell-based; settings: Homo sapiens, 120 h, Lymphoma (large cell immunoblastic), 5-day incubation
Protocol: as §1, §2, §3, §4

[12] = test system: SU-DHL-10; assay: Cell panel nuclear dye assay; format: cell-based; settings: Homo sapiens, SU-DHL10, 120 h, Lymphoma (large cell), 5-day incubation
Protocol: as §1, §2, §3, §4

[13] = test system: SW1783; assay: Cell panel nuclear dye assay; format: cell-based; settings: Homo sapiens, 120 h, Glioma (astrocytoma), 5-day incubation
Protocol: as §1, §2, §3, §4

[14] = test system: SW48; assay: Cell panel nuclear dye assay; format: cell-based; settings: Homo sapiens, 120 h, Colon, 5-day incubation
Protocol: as §1, §2, §3, §4

[15] = test system: T24; assay: Cell panel nuclear dye assay; format: cell-based; settings: Homo sapiens, T-24, 120 h, Bladder, 5-day incubation
Protocol: as §1, §2, §3, §4

[16] = test system: LN229 gliobastoma cells MGMT−/MMR−; assay: Anti-cancer assay, isogenic LN229 cells, nuclei count (Examples 43, 46); format: cell-based; settings: Homo sapiens, LN-229; MGMT negative/MMR negative; Example 46, maximum concentration 200 μM; read-out: IC50 for causing the death of LN229 cells
[17] = test system: dogs; assay: Animal model toxicity testing in dogs; settings: tested doses exceeded those at which A1 caused 100% mortality

## NC(=O)c1ncn2c(=O)n(CCOC(F)(F)F)nnc12 [Compound I-1, 4-Oxo-3-(2-(trifluoromethoxy)ethyl)-3,4-dihydroimidazo[5,1-d][1,2,3,5]tetrazine-8-carboxamide]
[1]; cell lines of Table 8
  Log 2 fold change in abundance of the cells: −3.5 to −2.0
[1]; cell lines of Table 9
  Log 2 fold change in abundance of the cells: −2.0 to −1.0
[1]; cell lines of Table 10
  Log 2 fold change in abundance of the cells: −1.0 to −0.5
[1]; cell lines of Table 11
  Log 2 fold change in abundance of the cells: −0.5 to −0.001
[1]; cell lines of Table 12
  anti-cancer effect: did not appear to provide an anti-cancer effect
[2]
  EC50: 30 to 70 µM
  IC50: 30 to 70 µM
[3]
  EC50: ≤ 30 µM
  IC50: ≤ 30 µM
[4]
  EC50: 30 to 70 µM
  IC50: 70 to 150 µM
[5]
  EC50: ≤ 30 µM
  IC50: ≤ 30 µM
[6]
  EC50: ≤ 30 µM
  IC50: ≤ 30 µM
[7]
  EC50: 30 to 70 µM
  IC50: 30 to 70 µM
[8]
  EC50: > 150 µM
  IC50: > 150 µM
[9]
  EC50: ≤ 30 µM
  IC50: > 150 µM
[10]
  EC50: 30 to 70 µM
  IC50: 30 to 70 µM
[11]
  EC50: ≤ 30 µM
  IC50: ≤ 30 µM
[12]
  EC50: ≤ 30 µM
  IC50: 30 to 70 µM
[13]
  EC50: 70 to 150 µM
  IC50: 70 to 150 µM
[14]
  EC50: ≤ 30 µM
  IC50: ≤ 30 µM
[15]
  EC50: 30 to 70 µM
  IC50: > 150 µM
[16]
  IC50: < 20 µM
[17]
  adverse clinical signs: no adverse clinical signs were observed
